According to patent US9603835B2, “Use of 3-(R)-[3-(2-methoxyphenylthio)-2-(S)-methylpropyl]amino-3,4-dihydro-2H-1,5-benzoxathiepine for treating cancer and in particular for preventing and/or treating cancer metastases” (PIERRE FABRE MEDICAMENT, priority 2011, dated 2017):

Assays:
[1] = target: T1, Nav1.5 voltage-gated sodium channels (Homo sapiens, UniProt Q14524); assay: Whole-cell patch-clamp, repeated depolarisation protocol, MDA-MB-231 cells; assay type: cell-based
T1 construct: said cells express, inter alia, functional Nav1.5 voltage-gated sodium channels; endogenous in cells; host or cells: MDA-MB-231
T1 sequence (Q14524 1-2016 isoform Q14524-4): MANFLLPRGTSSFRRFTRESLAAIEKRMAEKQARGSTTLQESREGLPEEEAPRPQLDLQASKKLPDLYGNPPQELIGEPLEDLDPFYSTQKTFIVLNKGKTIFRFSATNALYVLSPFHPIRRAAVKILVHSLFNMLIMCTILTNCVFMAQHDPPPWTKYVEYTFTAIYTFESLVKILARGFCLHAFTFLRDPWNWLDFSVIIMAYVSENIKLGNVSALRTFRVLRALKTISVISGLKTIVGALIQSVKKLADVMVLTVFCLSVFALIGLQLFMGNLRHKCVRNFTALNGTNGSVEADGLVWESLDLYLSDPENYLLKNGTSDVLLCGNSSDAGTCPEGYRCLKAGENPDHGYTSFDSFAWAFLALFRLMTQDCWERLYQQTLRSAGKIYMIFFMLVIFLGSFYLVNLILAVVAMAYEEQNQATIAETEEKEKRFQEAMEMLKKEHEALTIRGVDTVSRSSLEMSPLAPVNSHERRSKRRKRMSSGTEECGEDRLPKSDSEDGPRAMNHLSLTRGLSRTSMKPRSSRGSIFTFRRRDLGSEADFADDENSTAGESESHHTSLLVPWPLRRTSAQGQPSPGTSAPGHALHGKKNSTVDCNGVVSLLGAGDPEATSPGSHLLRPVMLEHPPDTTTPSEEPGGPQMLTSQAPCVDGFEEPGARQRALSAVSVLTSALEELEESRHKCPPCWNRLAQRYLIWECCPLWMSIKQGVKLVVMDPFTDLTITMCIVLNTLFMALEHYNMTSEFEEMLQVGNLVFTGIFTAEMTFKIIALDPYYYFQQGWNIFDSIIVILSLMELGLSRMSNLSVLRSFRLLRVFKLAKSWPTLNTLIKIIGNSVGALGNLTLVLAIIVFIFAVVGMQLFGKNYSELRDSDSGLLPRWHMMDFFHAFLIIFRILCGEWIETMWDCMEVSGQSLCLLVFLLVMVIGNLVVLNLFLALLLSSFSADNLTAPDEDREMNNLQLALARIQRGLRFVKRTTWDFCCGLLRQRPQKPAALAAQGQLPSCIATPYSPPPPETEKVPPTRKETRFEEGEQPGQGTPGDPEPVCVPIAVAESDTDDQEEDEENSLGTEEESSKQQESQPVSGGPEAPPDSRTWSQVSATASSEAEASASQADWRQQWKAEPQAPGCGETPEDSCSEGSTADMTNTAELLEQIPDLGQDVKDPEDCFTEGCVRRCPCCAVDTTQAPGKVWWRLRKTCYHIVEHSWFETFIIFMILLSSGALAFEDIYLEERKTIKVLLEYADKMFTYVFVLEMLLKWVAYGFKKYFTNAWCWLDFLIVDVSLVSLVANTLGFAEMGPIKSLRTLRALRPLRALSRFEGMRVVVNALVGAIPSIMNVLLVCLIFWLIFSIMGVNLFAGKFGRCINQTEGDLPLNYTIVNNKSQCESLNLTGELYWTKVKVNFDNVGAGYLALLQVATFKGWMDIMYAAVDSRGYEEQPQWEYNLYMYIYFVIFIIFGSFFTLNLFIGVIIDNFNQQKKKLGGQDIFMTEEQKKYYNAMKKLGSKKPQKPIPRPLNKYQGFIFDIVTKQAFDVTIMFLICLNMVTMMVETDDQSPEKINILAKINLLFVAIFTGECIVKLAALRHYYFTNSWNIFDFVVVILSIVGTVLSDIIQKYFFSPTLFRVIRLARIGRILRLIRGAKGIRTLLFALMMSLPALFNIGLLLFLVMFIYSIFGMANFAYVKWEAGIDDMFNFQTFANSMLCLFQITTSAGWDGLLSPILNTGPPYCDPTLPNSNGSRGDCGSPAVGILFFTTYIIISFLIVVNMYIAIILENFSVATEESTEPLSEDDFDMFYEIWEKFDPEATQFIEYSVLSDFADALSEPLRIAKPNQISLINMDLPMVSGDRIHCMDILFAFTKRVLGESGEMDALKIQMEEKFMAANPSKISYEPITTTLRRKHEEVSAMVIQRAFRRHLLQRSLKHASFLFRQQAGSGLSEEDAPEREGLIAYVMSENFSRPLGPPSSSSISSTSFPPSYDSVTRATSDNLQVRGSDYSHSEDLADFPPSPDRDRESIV
Description: Merely as an illustration, the inventors chose to use the MDA-MB-231 line, which is a highly metastatic human mammary adenocarcinoma line, in the experiment. […] However, the pharmacological tools in question are not suitable for precise characterisation of the nature of the Nav1.5 sodium current involved in the metastatic process. […] For this reason, the inventors consider that 3-(R)-[3-(2-methoxyphenylthio)-2-(S)-methyl-propyl]amino-3,4-dihydro-2H-1,5-benzoxathiepine has anti-metastatic properties in relation to cancer cells expressing the Nav1.5 channel. As such, it is important to note that numerous types of metastatic cancer have been reported as expressing the Nav1.5 channel.
Cell culture: the MDA-MB-231 cells are cultured in a Dulbecco's modified Eagle's medium, (Life Technologies LTD, Paisley, UK) supplemented with 4 mM L-glutamine and 10% foetal calf serum. The cells are inoculated in 100 mm culture dishes and placed in an incubator at 37° C., 100% moisture and 5% CO2.
Electrophysiological measurements in “whole cell” configuration: the patch pipette (resistance 5-15 MΩ) contains a solution of: 5 mM NaCl, 145 mM CsCl, 2 mM MgCl2, 1 mM CaCl2, 10 mM HEPES and 11 mM EGTA, the pH is adjusted to 7.4 with CsOH. The reference electrode is immersed in the extracellular medium consisting of a solution of: 140 mM NaCl, 4 mM KCl, 2 mM MgCl2, 11 mM glucose, 10 mM HEPES, the pH is adjusted to 7.4 with NaOH. These two electrodes are connected to an Axopatch 200B amplifier (Axon Instrument). The currents are filtered using a Bessel filter at a frequency of 5 kHz and are sampled at a frequency of 5 kHz using the Digidata interface (1200). The data acquisition and analysis are performed using pClamp software (Axon Instrument). The holding potential is set to −110 mV to record the maximum Nav channel activity.
Two protocols were used: • 1/ “Voltage-dependent current INa” protocol for observing the maximum amplitude of INa according to the voltage applied. Depolarisations in 5 mV stages are performed at a frequency of 0.2 Hz, from −110 to +60 mV. […]

Cytotoxicity = assay type: cell-based
[2] = In vivo effect on normal cardiac function; conditions: even at high doses

Row | SMILES | IC50 ([1]; MDA-MB-231 cells, whole cell patch-clamp, concentration-dependent, read-out: reduction of the metastatic Nav1.5 current (IC50)) [nM] | cytotoxicity (Cytotoxicity) | interference with normal cardiac function [2] | peak current inhibition ([1]; 1 µM) [%] | peak current inhibition ([1]; 5 µM) [%]
1 | COc1ccccc1SC[C@@H](C)CN[C@@H]1COc2ccccc2SC1 [3-(R)-[3-(2-methoxyphenylthio)-2-(S)-methyl-propyl]amino-3,4-dihydro-2H-1,5-benzoxathiepine] | 1500 | not cytotoxic | does not interfere with normal cardiac function |  | 
2 | NC1=N[C@H](O)[C@H]2[C@H]3O[C@]4(O)O[C@@H]([C@@H](O)[C@@]2(N1)[C@@H]4O)[C@]3(O)CO [tetrodotoxin] |  |  |  | 30±7 | 54±8
